{
  "source": "paper PMC5218480",
  "about": "(PLoS ONE, 2017)",
  "tested_on": "MV-4-11 cells",
  "experiment": "Gene expression microarray analysis (Affymetrix PrimeView) and GSEA",
  "assay_type": "cell-based, human",
  "set-up": "RFU PODN (11730768_x_at) / Fold change /veh PODN (11730768_x_at) / RFU LINC00158 (11744669_a_at) / Fold change /veh LINC00158 (11744669_a_at) / RFU DUSP10 (11751237_a_at) / Fold change /veh DUSP10 (11751237_a_at) / RFU ID3 (11757404_x_at) / Fold change /veh ID3 (11757404_x_at) / RFU PLEKHG5 (11737974_s_at) / Fold change /veh PLEKHG5 (11737974_s_at) / RFU LRRC4B (11730491_at) / Fold change /veh LRRC4B (11730491_at) / RFU GIMAP4 (11747438_a_at) / Fold change /veh GIMAP4 (11747438_a_at) / RFU KRT8 (11758183_x_at) / Fold change /veh KRT8 (11758183_x_at) / RFU CNN1 (11734310_a_at) / Fold change /veh CNN1 (11734310_a_at) / RFU VPS37D (11726825_at) / Fold change /veh VPS37D (11726825_at) / RFU C10orf10 (11716522_x_at) / Fold change /veh C10orf10 (11716522_x_at) / RFU KIR2DL2 /// KIR2DL4 /// KIR2DL5A /// KIR2DL5B /// KIR2DS1 /// KIR2DS2 /// KIR2DS3 /// KIR2DS4 /// KIR3DL3 /// KIR3DL3 /// KIR3DS1 (11738374_at) / Fold change /veh KIR2DL2 /// KIR2DL4 /// KIR2DL5A /// KIR2DL5B /// KIR2DS1 /// KIR2DS2 /// KIR2DS3 /// KIR2DS4 /// KIR3DL3 /// KIR3DL3 /// KIR3DS1 (11738374_at) / RFU C1QL1 (11718748_at) / Fold change /veh C1QL1 (11718748_at) / RFU TMPRSS4 (11747572_a_at) / Fold change /veh TMPRSS4 (11747572_a_at) / RFU HAMP (11756126_x_at) / Fold change /veh HAMP (11756126_x_at) / RFU RNFT2 (11725882_a_at) / Fold change /veh RNFT2 (11725882_a_at) / RFU NR4A2 (11747474_a_at) / Fold change /veh NR4A2 (11747474_a_at) / RFU ABCC12 (11746883_a_at) / Fold change /veh ABCC12 (11746883_a_at) / RFU TMEM136 (11760407_x_at) / Fold change /veh TMEM136 (11760407_x_at) / RFU CLDN22 /// WWC2 (11732394_at) / Fold change /veh CLDN22 /// WWC2 (11732394_at) / RFU HLA-DPB1 (11760878_x_at) / Fold change /veh HLA-DPB1 (11760878_x_at) / RFU SPINT1 (11716480_a_at) / Fold change /veh SPINT1 (11716480_a_at) / RFU GAP43 (11754022_s_at) / Fold change /veh GAP43 (11754022_s_at) / RFU A4GNT (11735810_at) / Fold change /veh A4GNT (11735810_at) / RFU PRB3 (11715151_x_at) / Fold change /veh PRB3 (11715151_x_at) / RFU TUBB4B (11761932_at) / Fold change /veh TUBB4B (11761932_at) / RFU CAPN14 (11732068_a_at) / Fold change /veh CAPN14 (11732068_a_at) / RFU TMCC2 (11721928_a_at) / Fold change /veh TMCC2 (11721928_a_at) / RFU IRGQ (11745062_a_at) / Fold change /veh IRGQ (11745062_a_at) / RFU FAM174B (11720279_a_at) / Fold change /veh FAM174B (11720279_a_at) / RFU TMPRSS4 (11748680_a_at) / Fold change /veh TMPRSS4 (11748680_a_at) / RFU FAM212B (11763350_a_at) / Fold change /veh FAM212B (11763350_a_at) / RFU PLEKHG5 (11743358_a_at) / Fold change /veh PLEKHG5 (11743358_a_at) / RFU ZSCAN30 (11745921_a_at) / Fold change /veh ZSCAN30 (11745921_a_at) / RFU CMKLR1 (11741424_a_at) / Fold change /veh CMKLR1 (11741424_a_at) / RFU LOC101060620 /// MAPK8IP1 (11723275_at) / Fold change /veh LOC101060620 /// MAPK8IP1 (11723275_at) / RFU SPTSSB (11747773_x_at) / Fold change /veh SPTSSB (11747773_x_at) / RFU PRSS12 (11739890_at) / Fold change /veh PRSS12 (11739890_at) / RFU BIN1 (11741810_x_at) / Fold change /veh BIN1 (11741810_x_at) / RFU WNT11 (11732464_a_at) / Fold change /veh WNT11 (11732464_a_at) / RFU C10orf10 (11716521_a_at) / Fold change /veh C10orf10 (11716521_a_at) / RFU C5orf56 (11738089_at) / Fold change /veh C5orf56 (11738089_at) / RFU CYB561 (11721691_x_at) / Fold change /veh CYB561 (11721691_x_at) / RFU ANKRD19P (11752326_a_at) / Fold change /veh ANKRD19P (11752326_a_at) / RFU OR2T12 /// OR2T33 /// OR2T8 (11738714_s_at) / Fold change /veh OR2T12 /// OR2T33 /// OR2T8 (11738714_s_at) / RFU VCAN (11748164_a_at) / Fold change /veh VCAN (11748164_a_at) / RFU JSRP1 (11732532_at) / Fold change /veh JSRP1 (11732532_at) / RFU KRTAP10-11 (11738290_x_at) / Fold change /veh KRTAP10-11 (11738290_x_at) / RFU MYO3A (11730013_a_at) / Fold change /veh MYO3A (11730013_a_at) / RFU EBF3 (11725865_a_at) / Fold change /veh EBF3 (11725865_a_at) / RFU CAMK2N1 (11719241_x_at) / Fold change /veh CAMK2N1 (11719241_x_at) / RFU C5orf56 (11738088_a_at) / Fold change /veh C5orf56 (11738088_a_at) / RFU OLFML3 (11715873_a_at) / Fold change /veh OLFML3 (11715873_a_at) / RFU LOC100653217 /// NTM (11731650_a_at) / Fold change /veh LOC100653217 /// NTM (11731650_a_at) / RFU MAPK11 (11762145_a_at) / Fold change /veh MAPK11 (11762145_a_at) / RFU FIZ1 (11724087_x_at) / Fold change /veh FIZ1 (11724087_x_at) / RFU OASL (11726364_x_at) / Fold change /veh OASL (11726364_x_at) / RFU SOX15 (11748057_x_at) / Fold change /veh SOX15 (11748057_x_at) / RFU CD79A (11719716_a_at) / Fold change /veh CD79A (11719716_a_at) / RFU HIST1H1D (11736915_at) / Fold change /veh HIST1H1D (11736915_at) / RFU CASKIN2 (11723855_a_at) / Fold change /veh CASKIN2 (11723855_a_at) / RFU LOC730098 (11760151_x_at) / Fold change /veh LOC730098 (11760151_x_at) / RFU OR4N2 (11742367_at) / Fold change /veh OR4N2 (11742367_at) / RFU PRRT2 (11749266_a_at) / Fold change /veh PRRT2 (11749266_a_at) / RFU SNX32 (11753110_a_at) / Fold change /veh SNX32 (11753110_a_at) / RFU CDHR5 (11726645_a_at) / Fold change /veh CDHR5 (11726645_a_at) / RFU RCAN1 (11760418_a_at) / Fold change /veh RCAN1 (11760418_a_at) / RFU FAM167A (11723789_a_at) / Fold change /veh FAM167A (11723789_a_at) / RFU FAM26E (11764081_at) / Fold change /veh FAM26E (11764081_at) / RFU ISYNA1 (11749810_s_at) / Fold change /veh ISYNA1 (11749810_s_at) / RFU ACY1 (11761880_at) / Fold change /veh ACY1 (11761880_at) / RFU 11764098_at / Fold change /veh 11764098_at / RFU SAMD14 (11745864_x_at) / Fold change /veh SAMD14 (11745864_x_at) / RFU NPB (11741838_a_at) / Fold change /veh NPB (11741838_a_at) / RFU TMPRSS6 (11731388_a_at) / Fold change /veh TMPRSS6 (11731388_a_at) / RFU KRTAP10-2 (11738614_at) / Fold change /veh KRTAP10-2 (11738614_at) / RFU ARHGAP8 /// PRR5-ARHGAP8 (11727945_x_at) / Fold change /veh ARHGAP8 /// PRR5-ARHGAP8 (11727945_x_at) / RFU KRTAP5-7 /// NADSYN1 (11734609_at) / Fold change /veh KRTAP5-7 /// NADSYN1 (11734609_at) / RFU RASL12 (11751679_a_at) / Fold change /veh RASL12 (11751679_a_at) / RFU CDKN2B (11736163_a_at) / Fold change /veh CDKN2B (11736163_a_at) / RFU PRF1 (11729649_at) / Fold change /veh PRF1 (11729649_at) / RFU, ZNF638 /// ZNF638-IT1 / Fold change vs veh, ZNF638 /// ZNF638-IT1 / RFU, PANK3 / Fold change vs veh, PANK3 / RFU, SH3YL1 / Fold change vs veh, SH3YL1 / RFU, ZEB2 / Fold change vs veh, ZEB2 / RFU, NRIP1 / Fold change vs veh, NRIP1 / RFU, PTTG1IP / Fold change vs veh, PTTG1IP / RFU, CAPN2 / Fold change vs veh, CAPN2 / RFU, MED14 / Fold change vs veh, MED14 / RFU, SNORA58 / Fold change vs veh, SNORA58 / RFU, C1orf63 / Fold change vs veh, C1orf63 / RFU, LRRFIP1 / Fold change vs veh, LRRFIP1 / RFU, NDUFAF7 / Fold change vs veh, NDUFAF7 / RFU, SLC12A2 / Fold change vs veh, SLC12A2 / RFU, IBTK / Fold change vs veh, IBTK / RFU, ESF1 / Fold change vs veh, ESF1 / Fold change vs veh, TMEM50B / RFU, TAOK1 / Fold change vs veh, TAOK1 / RFU, ACBD3 / Fold change vs veh, ACBD3 / RFU, TMA16 / Fold change vs veh, TMA16 / RFU, RWDD3 / Fold change vs veh, RWDD3 / RFU, BCAT1 / Fold change vs veh, BCAT1 / RFU, EDEM3 / Fold change vs veh, EDEM3 / RFU, TMEM33 / Fold change vs veh, TMEM33 / RFU, WDR75 / Fold change vs veh, WDR75 / RFU, AHCTF1 / Fold change vs veh, AHCTF1 / RFU, TFRC / Fold change vs veh, TFRC / RFU, ZDHHC17 / Fold change vs veh, ZDHHC17 / RFU, NOM1 / Fold change vs veh, NOM1 / RFU, ARL8B / Fold change vs veh, ARL8B / RFU, ZBTB11 / Fold change vs veh, ZBTB11 / RFU, TAMM41 / Fold change vs veh, TAMM41 / RFU, KIAA1704 /// LOC100996395 / Fold change vs veh, KIAA1704 /// LOC100996395 / RFU, ING1 / Fold change vs veh, ING1 / RFU, TRMT61B / Fold change vs veh, TRMT61B / RFU, FUBP3 / Fold change vs veh, FUBP3 / RFU, TP53 / Fold change vs veh, TP53 / RFU, TNKS2 / Fold change vs veh, TNKS2 / RFU, ZFP14 / Fold change vs veh, ZFP14 / RFU, ACTR2 / Fold change vs veh, ACTR2 / RFU, PPP3R1 / Fold change vs veh, PPP3R1 / RFU, PIK3R1 / Fold change vs veh, PIK3R1 / RFU, HNRNPA1 / Fold change vs veh, HNRNPA1 / RFU, RNF170 / Fold change vs veh, RNF170 / RFU, ZNF28 / Fold change vs veh, ZNF28 / RFU, RNGTT / Fold change vs veh, RNGTT / RFU, OGT / Fold change vs veh, OGT / RFU, BRD1 / Fold change vs veh, BRD1 / RFU, MARS / Fold change vs veh, MARS / RFU, ZNF655 / Fold change vs veh, ZNF655 / RFU, FAHD1 / Fold change vs veh, FAHD1 / RFU, BDP1 / Fold change vs veh, BDP1 / RFU, LRRCC1 / Fold change vs veh, LRRCC1 / RFU, ARID1A / Fold change vs veh, ARID1A / RFU, ZNF146 / Fold change vs veh, ZNF146 / RFU, ZNF330 / Fold change vs veh, ZNF330 / RFU, GPN3 / Fold change vs veh, GPN3 / RFU, C9orf123 / Fold change vs veh, C9orf123 / RFU, N4BP2L2 / Fold change vs veh, N4BP2L2 / RFU, ARFIP1 / Fold change vs veh, ARFIP1 / RFU, FAM179B / Fold change vs veh, FAM179B / RFU, BCL10 / Fold change vs veh, BCL10 / RFU, UHRF1BP1L / Fold change vs veh, UHRF1BP1L / RFU, BET1 / Fold change vs veh, BET1 / RFU, CNOT2 / Fold change vs veh, CNOT2 / RFU, ZNF268 / Fold change vs veh, ZNF268 / Fold change vs veh, ZNF507 / RFU, DGCR2 / Fold change vs veh, DGCR2 / RFU, WDSUB1 / Fold change vs veh, WDSUB1 / Fold change vs veh, HSP90B1 /// MIR3652 / RFU, ADSS / Fold change vs veh, ADSS / RFU, GK / Fold change vs veh, GK / RFU, ZNF148 / Fold change vs veh, ZNF148 / RFU, TAF9 / Fold change vs veh, TAF9 / RFU, SLC1A5 / Fold change vs veh, SLC1A5 / RFU, SLMO2 / Fold change vs veh, SLMO2 / RFU, ABCC4 / Fold change vs veh, ABCC4 / RFU, LOC101060439 /// RAP1B / Fold change vs veh, LOC101060439 /// RAP1B / RFU, RFX7 / Fold change vs veh, RFX7 / RFU, GTPBP10 / Fold change vs veh, GTPBP10 / RFU, CNEP1R1 / Fold change vs veh, CNEP1R1 / RFU, BIVM-ERCC5 /// ERCC5 / Fold change vs veh, BIVM-ERCC5 /// ERCC5 / RFU, ILF3 / Fold change vs veh, ILF3 / RFU 11762660_at / Fold change /veh 11762660_at / RFU VCAN (11757783_s_at) / Fold change /veh VCAN (11757783_s_at) / RFU DDX43 (11728927_at) / Fold change /veh DDX43 (11728927_at) / RFU KRT8 (11758188_x_at) / Fold change /veh KRT8 (11758188_x_at) / RFU NKD1 (11759106_at) / Fold change /veh NKD1 (11759106_at) / RFU SRD5A1 (11742802_a_at) / Fold change /veh SRD5A1 (11742802_a_at) / RFU TPSAB1 /// TPSB2 (11721975_s_at) / Fold change /veh TPSAB1 /// TPSB2 (11721975_s_at) / RFU GSTM3 (11746129_a_at) / Fold change /veh GSTM3 (11746129_a_at) / RFU IL23R (11737362_x_at) / Fold change /veh IL23R (11737362_x_at) / RFU TMEM51 (11727254_a_at) / Fold change /veh TMEM51 (11727254_a_at) / RFU PIWIL2 (11732686_x_at) / Fold change /veh PIWIL2 (11732686_x_at) / RFU ORM1 (11744905_x_at) / Fold change /veh ORM1 (11744905_x_at) / RFU CCDC152 (11743942_at) / Fold change /veh CCDC152 (11743942_at) / RFU ECM1 (11717891_a_at) / Fold change /veh ECM1 (11717891_a_at) / RFU IL23R (11748794_a_at) / Fold change /veh IL23R (11748794_a_at) / RFU TNFAIP8L3 (11732012_x_at) / Fold change /veh TNFAIP8L3 (11732012_x_at) / RFU MBOAT4 (11741988_at) / Fold change /veh MBOAT4 (11741988_at) / RFU 11764193_at / Fold change /veh 11764193_at / RFU TMEM53 (11763286_at) / Fold change /veh TMEM53 (11763286_at) / RFU MAGEB2 (11727129_at) / Fold change /veh MAGEB2 (11727129_at) / RFU TMEM200A (11744735_a_at) / Fold change /veh TMEM200A (11744735_a_at) / RFU CCDC152 (11751479_a_at) / Fold change /veh CCDC152 (11751479_a_at) / RFU FAM211A (11726209_a_at) / Fold change /veh FAM211A (11726209_a_at) / RFU RGS16 (11746705_a_at) / Fold change /veh RGS16 (11746705_a_at) / RFU VCAN (11755009_s_at) / Fold change /veh VCAN (11755009_s_at) / RFU RHOB (11743442_s_at) / Fold change /veh RHOB (11743442_s_at) / RFU RGS16 (11720943_a_at) / Fold change /veh RGS16 (11720943_a_at) / RFU RGS16 (11720944_at) / Fold change /veh RGS16 (11720944_at) / RFU, VPS4B / Fold change vs veh, VPS4B / RFU, CREB1 / Fold change vs veh, CREB1 / RFU, DNAJC13 / Fold change vs veh, DNAJC13 / RFU, GNAQ / Fold change vs veh, GNAQ / RFU, CDK5R1 / Fold change vs veh, CDK5R1 / RFU, ZRANB3 / Fold change vs veh, ZRANB3 / RFU, CUL4A / Fold change vs veh, CUL4A / RFU, CCNY / Fold change vs veh, CCNY / RFU, UFL1 / Fold change vs veh, UFL1 / RFU, COG3 / Fold change vs veh, COG3 / RFU, DIAPH2 / Fold change vs veh, DIAPH2 / RFU, SKA2 / Fold change vs veh, SKA2 / RFU, AFF3 / Fold change vs veh, AFF3 / RFU, LMF1 / Fold change vs veh, LMF1 / RFU, IPO11 / Fold change vs veh, IPO11 / RFU, DFFB / Fold change vs veh, DFFB / RFU, FOXP1 / Fold change vs veh, FOXP1 / RFU, CARD8 / Fold change vs veh, CARD8 / RFU, STRN3 / Fold change vs veh, STRN3 / RFU, ADK / Fold change vs veh, ADK / RFU, RASSF2 / Fold change vs veh, RASSF2 / RFU, WIPF1 / Fold change vs veh, WIPF1 / RFU, LARP1B / Fold change vs veh, LARP1B / RFU, RASA1 / Fold change vs veh, RASA1 / RFU, RB1 / Fold change vs veh, RB1 / RFU, PPFIA1 / Fold change vs veh, PPFIA1 / RFU, MAT2A / Fold change vs veh, MAT2A / RFU, CCT5 / Fold change vs veh, CCT5 / RFU, WDR92 / Fold change vs veh, WDR92 / RFU, CUX1 / Fold change vs veh, CUX1 / RFU, TTC7A / Fold change vs veh, TTC7A / RFU, TMEM135 / Fold change vs veh, TMEM135 / RFU, DEPTOR / Fold change vs veh, DEPTOR / RFU, CPM / Fold change vs veh, CPM / RFU, DNAJB6 / Fold change vs veh, DNAJB6 / RFU, CACNA2D3 / Fold change vs veh, CACNA2D3 / RFU, DTX4 / Fold change vs veh, DTX4 / RFU, TFCP2 / Fold change vs veh, TFCP2 / RFU, GMCL1 /// GMCL1P1 / Fold change vs veh, GMCL1 /// GMCL1P1 / RFU, AEBP2 / Fold change vs veh, AEBP2 / RFU, SNHG1 /// SNORD22 /// SNORD25 /// SNORD26 /// SNORD27 /// SNORD28 /// SNORD29 /// SNORD31 / Fold change vs veh, SNHG1 /// SNORD22 /// SNORD25 /// SNORD26 /// SNORD27 /// SNORD28 /// SNORD29 /// SNORD31 / Fold change (Aza/veh), C12orf56 (ProbeSet 11735607_a_at) / Fold change (ACY-1035/veh), C12orf56 (ProbeSet 11735607_a_at) / Fold change (Aza/veh), FGFR1OP (ProbeSet 11751329_s_at) / Fold change (ACY-1035/veh), FGFR1OP (ProbeSet 11751329_s_at) / Fold change (Aza/veh), VPS36 (ProbeSet 11739960_a_at) / Fold change (ACY-1035/veh), VPS36 (ProbeSet 11739960_a_at) / RFU SYPL1 (11715823_x_at) / Fold change /veh SYPL1 (11715823_x_at) / RFU IGFBP7 (11715501_s_at) / Fold change /veh IGFBP7 (11715501_s_at) / RFU REEP3 (11722064_at) / Fold change /veh REEP3 (11722064_at) / RFU IGLL1 (11728026_x_at) / Fold change /veh IGLL1 (11728026_x_at): dose or concentration left out as unconfirmed",
  "details": "ProbeSet 11726661_s_at; LIST B",
  "data": [
    {"compound": "Nc1ccc(-c2cccs2)cc1NC(=O)c1ccc2c(c1)cc(C1CC1)n2CCN1CCOCC1", "note": "[ACY-1035]", "values": [
      {"measurement": "RFU, GPN3", "result": 242.51, "unit": "RFU"}
    ]}
  ]
}
